Measurements published in ChEMBL document CHEMBL1150095, “Antitumor activity and stereochemistry of acetylenic alcohols from the sponge Cribrochalina vasculum” (1995).
The source made the active and inactive calls. No cut-off for these calls is given here.

Tests used:
Assay type in all cases: functional
IGROV-1 [1] = assay: Antitumor activity against human IGROV1 cells
IGROV-1 [2] = assay: Antitumor activity against human IGROV1 cell xenografted athymic mouse assessed as increase in life span at 50 mg/kg, ip once daily; conditions: route intraperitoneal
NCI-H522 = assay: Antitumor activity against human NCI-H522 cells

In the case of `C#C[C@@H](O)/C=C/CCCCCCCCCCCCCCC`, the Activity (IGROV-1 [1]) is reported as “Active”, the Activity (IGROV-1 [2]) is reported as 36.5 days and the Activity (NCI-H522) is reported as “Active”.
`C#C[C@@H](O)/C=C/CCCCCCCCC/C=C\CCCCC(C)C` was tested, and the Activity (IGROV-1 [1]) was “Active” and the Activity (NCI-H522) was “Active”.
